A value given as a limit tells only on which side of the number the result lay.

One data set relates to rSARS-CoV-2/Nluc. Briefly: microbe, parasite or virus in culture. The data set is classed as cell-based, SARS-CoV-2. The note with it: for EC50: Severe acute respiratory syndrome coronavirus 2, Calu-3, read-out: EC50, SARS-CoV-2 infection, Calu-3 cells.
The next data set concerns EGFR. The note with it: ref Asquith et al., 2019a, 2019b; Davis et al.,2011; cited from earlier work.
The test system of the next data set is STK10. The note with it: ref Asquith et al., 2019a, 2019b; Davis et al.,2011; cited from earlier work.
Another data set deals with YSK4. The conditions noted are these: ref Asquith et al., 2019a, 2019b; Davis et al.,2011; cited from earlier work.
In another data set the test system is SLK. The conditions noted are these: ref Asquith et al., 2019a, 2019b; Davis et al.,2011; cited from earlier work.
Another data set has as its target AAK1 (Homo sapiens, UniProt Q2M2I8). Briefly: In vitro binding, dissociation constant.
The next data set has as its target BIKE (Homo sapiens, UniProt Q9NSY1). Kind of data set: In vitro binding, dissociation constant.
A short description of data set [1]: alamarBlue viability, infected Vero E6 cells. The data set is classed as cell-based. The conditions noted are these: African green monkey, 24 hpi. (In general: Alamar Blue is a resazurin reagent that responds to reducing activity.)
The nature of data set [2]: alamarBlue viability, infected Calu-3 cells. It is filed as cell-based. The note with it: human.
For a further data set, the system named is RIPK2. The conditions noted are these: ref Asquith et al., 2019a, 2019b; cited from earlier work.
In the next data set the test system is ADCK3. The note with it: ref Asquith et al., 2019a, 2019b; cited from earlier work.
The subject of a further data set is NLK. The note with it: ref Asquith et al., 2019a, 2019b; cited from earlier work.
For a further data set, the system named is PDGFRβ. The note with it: ref Davis et al.,2011; cited from earlier work.
For another data set, the system named is JAK2. The note with it: ref Stebbing et al.,2021; Klaeger et al.,2017; cited from earlier work.
The subject of a further data set is TYK2. The conditions noted are these: ref Stebbing et al.,2021; Klaeger et al.,2017; cited from earlier work.

Sequence of BIKE (Q9NSY1 whole entry): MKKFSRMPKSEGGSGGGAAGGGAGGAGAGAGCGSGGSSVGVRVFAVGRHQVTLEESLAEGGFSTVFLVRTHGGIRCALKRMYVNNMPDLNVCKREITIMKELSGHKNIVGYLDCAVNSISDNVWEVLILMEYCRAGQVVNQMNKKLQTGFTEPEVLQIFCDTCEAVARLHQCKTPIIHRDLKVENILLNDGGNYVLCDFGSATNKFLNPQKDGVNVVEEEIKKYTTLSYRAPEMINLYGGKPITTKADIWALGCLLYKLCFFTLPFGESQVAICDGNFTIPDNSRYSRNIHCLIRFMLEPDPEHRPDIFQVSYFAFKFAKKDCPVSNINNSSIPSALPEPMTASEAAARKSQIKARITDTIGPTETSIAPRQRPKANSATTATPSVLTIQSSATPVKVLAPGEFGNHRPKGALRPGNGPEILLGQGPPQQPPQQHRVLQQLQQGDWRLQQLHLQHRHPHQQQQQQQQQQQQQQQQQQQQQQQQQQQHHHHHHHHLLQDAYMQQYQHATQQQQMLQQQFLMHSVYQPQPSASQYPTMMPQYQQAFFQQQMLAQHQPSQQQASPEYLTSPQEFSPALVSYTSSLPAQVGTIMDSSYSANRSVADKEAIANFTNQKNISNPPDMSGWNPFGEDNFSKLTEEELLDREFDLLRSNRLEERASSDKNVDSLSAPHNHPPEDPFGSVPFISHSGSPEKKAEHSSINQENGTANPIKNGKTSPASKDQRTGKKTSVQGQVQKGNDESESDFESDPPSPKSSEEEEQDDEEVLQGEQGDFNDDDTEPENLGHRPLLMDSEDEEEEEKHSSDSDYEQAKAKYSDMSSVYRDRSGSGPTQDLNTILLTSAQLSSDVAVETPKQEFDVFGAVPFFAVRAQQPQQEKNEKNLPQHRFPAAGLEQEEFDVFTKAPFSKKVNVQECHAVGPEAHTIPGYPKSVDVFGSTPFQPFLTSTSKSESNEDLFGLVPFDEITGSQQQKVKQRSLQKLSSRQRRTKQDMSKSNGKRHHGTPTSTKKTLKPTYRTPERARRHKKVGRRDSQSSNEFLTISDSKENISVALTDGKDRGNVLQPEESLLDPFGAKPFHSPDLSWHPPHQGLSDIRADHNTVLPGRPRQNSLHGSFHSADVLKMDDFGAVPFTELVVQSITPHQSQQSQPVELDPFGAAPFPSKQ
Sequence of AAK1 (Q2M2I8 whole entry): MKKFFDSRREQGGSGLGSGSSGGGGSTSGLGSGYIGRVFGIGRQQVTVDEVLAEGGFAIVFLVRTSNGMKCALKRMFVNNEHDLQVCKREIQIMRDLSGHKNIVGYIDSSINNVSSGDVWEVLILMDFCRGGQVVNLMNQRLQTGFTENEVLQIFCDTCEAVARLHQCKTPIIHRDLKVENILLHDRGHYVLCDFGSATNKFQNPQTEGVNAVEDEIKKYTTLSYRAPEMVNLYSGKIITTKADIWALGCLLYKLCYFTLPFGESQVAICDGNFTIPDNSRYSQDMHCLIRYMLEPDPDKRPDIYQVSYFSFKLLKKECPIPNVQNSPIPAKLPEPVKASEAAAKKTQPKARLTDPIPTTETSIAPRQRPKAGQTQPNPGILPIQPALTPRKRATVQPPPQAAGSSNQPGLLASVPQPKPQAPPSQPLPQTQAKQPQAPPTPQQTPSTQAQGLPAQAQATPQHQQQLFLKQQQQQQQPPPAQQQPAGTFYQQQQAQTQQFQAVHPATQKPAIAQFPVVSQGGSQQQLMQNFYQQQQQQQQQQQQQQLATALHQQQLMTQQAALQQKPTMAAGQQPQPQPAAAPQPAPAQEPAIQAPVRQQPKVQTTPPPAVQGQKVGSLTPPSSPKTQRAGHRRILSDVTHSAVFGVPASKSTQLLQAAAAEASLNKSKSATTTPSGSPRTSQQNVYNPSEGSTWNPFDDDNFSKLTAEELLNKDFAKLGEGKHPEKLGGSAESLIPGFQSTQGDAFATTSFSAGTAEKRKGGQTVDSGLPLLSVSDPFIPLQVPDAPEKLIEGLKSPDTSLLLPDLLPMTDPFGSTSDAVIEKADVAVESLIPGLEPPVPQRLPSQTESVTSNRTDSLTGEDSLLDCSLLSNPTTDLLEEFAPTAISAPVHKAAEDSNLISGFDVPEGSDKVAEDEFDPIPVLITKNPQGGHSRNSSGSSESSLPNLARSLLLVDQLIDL

What is called EC50 is the midpoint of the concentration-response curve. Regarding `C#Cc1cccc(Nc2ncnc3cc(OCCOC)c(OCCOC)cc23)c1` [Erlotinib, erlotinib], the half-maximal effective concentration (EC50) in the data set on rSARS-CoV-2/Nluc is greater than 20 µM. In addition, in the data set on EGFR, the “ErbB1 (Other targets, measure not stated)” value is given as 0.7 nM. Further, in the data set with STK10, the “STK10 (Other targets, measure not stated)” value is on record as 19 nM. Further, the “YSK4 (Other targets, measure not stated)” value with YSK4 is 25 nM. In the data set on SLK, the “SLK (Other targets, measure not stated)” value is recorded as 26 nM.
Usually Kd stands for the concentration at which binding is half-saturated. Read a high Kd as weaker binding. As a reminder, the CC50 is the concentration that lowers cell viability or growth by half. Turning to `C=CC(=O)Nc1cccc(-c2snc3cc(-c4ccc(N)c(OC)c4)cnc23)c1` [RMC-242, N-(3-(6-(4-amino-3-methoxyphenyl)isothiazolo [4,3-b]pyridin-3-yl)phenyl) acrylamide], the figures for the Kd on AAK1 and at BIKE were 4.1 µM and greater than 15 µM, respectively. The EC50 in the data set on rSARS-CoV-2/Nluc is 1.6 µM. The CC50 at 24 h post infection in [1] is 16 µM; in [2], greater than 20 µM.
`COc1cc(Nc2ccnc3ccc(Br)cc23)cc(OC)c1OC` [SGC-GAK-1]: the concentration for a half-maximal effect (EC50) in the data set on rSARS-CoV-2/Nluc was 2.3 µM. Moreover, the cytotoxic concentration (CC50) at 24 h post infection in [1] and in [2] was greater than 20 µM each time. In addition, the “RIPK2 (Other targets, measure not stated)” value in the data set on RIPK2 was 110 nM. Also, in the data set with ADCK3, the “ADCK3 (Other targets, measure not stated)” value is 190 nM. For the same compound, in the data set with NLK, the “NLK (Other targets, measure not stated)” value is on record as 520 nM.
For the compound `CCN(CC)CCNC(=O)c1c(C)[nH]c(/C=C2\C(=O)Nc3ccc(F)cc32)c1C` [Sunitinib, sunitinib], in the data set with rSARS-CoV-2/Nluc, the EC50 worked out at 2.9 µM. Also, the CC50 at 24 h post infection was 12.2 µM in data set [1] and greater than 20 µM in data set [2]. In addition, in the data set on PDGFRβ, the “PDGFRβ (Other targets, measure not stated)” value was 2 nM.
For the compound `CCS(=O)(=O)N1CC(CC#N)(n2cc(-c3ncnc4[nH]ccc34)cn2)C1` [Baricitinib, baricitinib], the “antiviral activity in Calu-3 cells” value in the data set on rSARS-CoV-2/Nluc is listed as “largely no antiviral activity”. Further, the “JAK2 (Other targets, measure not stated)” value in the data set with JAK2 is recorded as 5.7 nM. Also, in the data set with TYK2, the “TYK2 (Other targets, measure not stated)” value is given as 53 nM.

The values are drawn from PMC9212491 (Antiviral Research, 2022).
